Measured values reported in US10239878B2, “Macrocyclic ligands with pendant chelating moieties and complexes thereof” (LUMIPHORE, INC., priority 2016, dated 2019).
Where a name gives a salt, the structure may show the parent alone. Marks after values point to notes of the source that are not given here.

Experiments:
[1] = Thorium(IV) complexes; ligand denticity bi- to deca-dentate; cited from earlier work
[2] = Photophysical characterization of Eu complexes (UV-vis absorption, quantum yield, lifetime); format: physicochemical; conditions: for ε260/ε at λmax / ε280/ε at λmax / λmax / Φtotal at 365 nm excitation: TBS buffer; for ε260/ε at λmax / ε280/ε at λmax / λmax: pH 7.6; for Φtotal at 365 nm excitation: quinine sulfate as quantum yield standard; for Lifetime: luminescence, HPLC purified Eu complexes
Experimental: The europium complexes of ligands 16, 29, 33, 40, and 43 were prepared by separately dissolving each ligand (2 mg) into methanol (200 μL). Excess europium chloride hexahydrate (˜5 equivalents) was dissolved in methanol (200 μL) and the full volume was added to each of the ligand solutions. The solvent was removed, and the residue was dissolved into DMF (50 μL). The europium complexes were then purified by semi-prep HPLC on an Agilent 1260 Infinity instrument using an Eclipse XDB-C18 column (5 μm, 9.4×250 mm). The mobile phase was 10 to 30% acetonitrile in water containing 0.1% trifluoroacetic acid. The volatiles were removed from the HPLC eluents under vacuum, and the residues were separately dissolved into methanol (500 μL) to give methanolic stock solutions of each europium complex with greater than 98% purity. A few drops of these methanolic solutions were evaporated to dryness, and then the residue was dissolved into TBS buffer at a concentration of ca. 3 μM to make aqueous stock solutions (20 mL) with an absorbance of 0.05 (1 cm path length) at 365 nm. Five dilutions (1/6, 2/6, 3/6, 4/6, and 5/6) were made from these aqueous stock solutions to yield six samples with evenly spaced concentrations (3 mL volume each). Quinine sulfate dissolved in 0.05 M sulfuric acid was similarly diluted to a final absorbance of 0.05 at 365 nm, and this solution was similarly (1/6, 2/6, 3/6, 4/6, and 5/6) diluted to afford six quinine sulfate reference samples of evenly spaced concentration. Quinine sulfate in 0.05 M sulfuric acid was used as the quantum yield standard (Φ=0.508). By measuring the absorbance and luminescence of these dilute solutions, the quantum yields of the new Eu complexes were determined. A 5 cm path-length quartz cell was used to measure the absorbance of these dilute solutions in order to improve the UV-vis signal-to-noise. Steady state photoluminescence measurements were collected in a 1 cm fluorescence cuvette at 365 nm excitation wavelength, 1 nm resolution, 10 nm excitation slit width, 1 nm emission slit width, and 0.2 sec integration time on an instrument that has been described elsewhere (D'Aléo, A.; Moore, E. G.; Szigethy, G.; Xu, J.; Raymond, K. N. Inorg. Chem. 2009, 48, 9316.). Absorption spectra were measured at 1 nm resolution, and the absorbance of each sample was taken as the average absorbance measured from 360-370 nm to reflect the 10 nm excitation slit width used for luminescence measurements. The data derived from these experiments, and from the titration experiments in example 11 are tabulated below.

[3] = 250 mM DTPA competition experiments (kinetic stability of Eu complexes); format: physicochemical
From the text: From these experiments, it is clear that 43⋅Eu is remarkably stable to a wide range of competitive metal ions and chelators. The competitor concentrations mentioned above are a good way to assess the kinetic stability of the complex in various assay conditions. DTPA is an exceptionally good ligand for lanthanide ions, and thus it is not typically used in practical assays. However, DTPA competition offers an excellent way to benchmark the kinetic stability of the complexes reported here. […] In order to compare the kinetic stability of the complexes reported here, a 750 mM stock solution (25 mL) of DTPA was prepared by dissolving DTPA (7.375 g, 18.75 mmol) into water (20 mL) containing potassium hydroxide (5.26 g, 93.75 mmol). The pH of the DTPA solution was adjusted to pH=7.6 by addition of concentrated hydrochloric acid, and then the solution was diluted to a final volume of 25 mL to give a 750 mM DTPA stock solution at pH=7.6. HPLC purified europium complexes of 16, 29, 33, 40, and 43 were separately diluted to 11 μM in TBS buffer, pH=7.6. For each DTPA competition experiment, 1 mL of the 750 mM DTPA solution was added to 2 mL of the 11 μM europium complex solution. The luminescence at 612 nm (365 nm excitation) was monitored for these five separate solutions containing 250 mM DTPA and 7.1 μM of each europium complex as a function of time.

[4] = Europium titration experiments for determining extinction coefficients; format: physicochemical; conditions: for ε at λmax (starred values): assumed equal to those measured by titration for 16 · Eu or 43 · Eu; for extinction coefficient: UV-vis titration with europium chloride, TBS buffer pH 7.6, at lambda max; for lambda max: UV-vis titration, TBS buffer; for ε at λmax: by europium titration, TBS buffer pH 7.6
Experimental: In order to determine accurate extinction coefficients for 16 and 16⋅Eu, titration experiments using europium chloride as the titrant were performed. Europium chloride hexahydrate (13.22 mg, 0.03608 mmol) was dissolved into 5 mM citrate buffer (pH=4) using a 100 mL volumetric flask to give a 0.3608 mM europium chloride solution, which was then titrated into a 0.5 mL solution of 16 in TBS buffer (Tris-buffered saline, 50 mM Tris, 150 mM NaCl, pH=7.6) using 5 μL aliquots. The UV-vis spectra were adjusted for the increase in solvent volume due to each injection. The results of the UV-vis titration are plotted in FIG. 3.
The volume of europium chloride corresponds to 16.70 nmol of europium, meaning the starting concentration of ligand 16 was 33.40 μM. […] These absorbance and concentration values yield extinction coefficients of 13,600 M^−1 cm^−1 and 14,300 M^−1 cm^−1 for the ligand 16 and the complex 16⋅Eu respectively.
In order to determine accurate extinction coefficients for 43 and 43⋅Eu, titration experiments using europium chloride as the titrant were performed. Europium chloride hexahydrate (47.58 mg, 0.1299 mmol) was dissolved into 50 mM citrate buffer (pH=4) using a 10 mL volumetric flask to give a 12.99 mM europium chloride solution, which was then transferred to a 100 mL volumetric flask and diluted 1:10 with water. The resulting 1.299 mM europium chloride solution (in 5 mM citrate buffer) was then titrated into a 1 mL solution of 43 in TBS buffer using 5 μL aliquots. The UV-vis spectra were adjusted for the increase in solvent volume due to each injection. The results of the UV-vis titration are plotted in FIG. 4.
The volume of europium chloride corresponds to 47.46 nmol of europium, meaning the starting concentration of ligand 43 was 47.46 μM. […] These absorbance and concentration values yield extinction coefficients of 13,000 M^−1 cm^−1 and 12,800 M^−1 cm^−1 for the ligand and complex respectively.
Titration of ligand 43 was also performed by luminescence (FIG. 5), monitoring the europium signal at 612 nm upon photoexcitation of the solution at 340 nm. The ligand solution used for the UV-vis titration of 43 mentioned above was first diluted 1:10 in TBS buffer. Similarly, the 1.299 mM stock europium solution was separately diluted 1:10 with water. […] The 32.99 μL equivalence point gives extinction coefficients of 14,400 M^−1 cm^−1 at 383 nm and 14,200 M^−1 cm^−1 at 357 nm for 43 and 43⋅Eu respectively. Averaging the values from both UV-vis and luminescence titration experiments of 43 yields extinction coefficients of 13,700 M^−1 cm^−1 at 383 nm and 13,500 M^−1 cm^−1 at 357 nm for 43 and 43⋅Eu respectively.

[5] = in 0.05 M sulfuric acid; cited from earlier work

| ε260/ε at λmax [2] | ε280/ε at λmax [2] | λmax [2] [nm] | Φtotal at 365 nm excitation [2] [%] | Lifetime [2] [μs] | Compound | Log K1 [1] | further results |
| --- | --- | --- | --- | --- | --- | --- | --- |
|  |  |  |  |  | O=C(O)CN(CCN(CCN(CC(=O)O)CC(=O)O)CC(=O)O)CCN(CC(=O)O)CC(=O)O [TTHA] | 31.9 |  |
|  |  |  |  |  | O=C(O)CN(CCO)CCN(CC(=O)O)CC(=O)O [HEDTA] | 18.5 |  |
| 1.42 | 1.18 | 363 | 29.8 | 716 | NCCCC[C@H]1CNC(=O)c2ccc(c(=O)n2[O-])C(=O)NCCCN(C(=O)c2cccc(=O)n2[O-])CCCCN(C(=O)c2cccc(=O)n2[O-])CCCNC(=O)c2ccc(n([O-])c2=O)C(=O)N1.[Eu+3] [29⋅Eu] |  | kinetic stability relative to 43⋅Eu to challenge by DTPA [3]: at least an order of magnitude; kinetic stability relative to m-tetrahydrofurandiamine-based macrocycles (40⋅Eu and 43⋅Eu) [3]: ~5 ×; ε at λmax (starred values) [4]: 14,300* M^−1cm^−1 |
| 1.40 | 1.14 | 363 | 30.0 | 723 | NCCOCCNC(=O)C1CCCN(C(=O)c2cccc(=O)n2[O-])CCCNC(=O)c2ccc(n([O-])c2=O)C(=O)NCCNC(=O)c2ccc(c(=O)n2[O-])C(=O)NCCCN1C(=O)c1cccc(=O)n1[O-].[Eu+3] (stereo not drawn) [33⋅Eu] |  | kinetic stability relative to m-tetrahydrofurandiamine-based macrocycles (40⋅Eu and 43⋅Eu) [3]: ~5 ×; reduction in kinetic stability upon introduction of the spermine-based sidearm ([3]; 33⋅Eu versus 16⋅Eu, 43⋅Eu versus 40⋅Eu): two fold; ε at λmax (starred values) [4]: 14,300* M^−1cm^−1 |
| 1.51 | 1.19 | 357 | 28.2 | 729 | O=C1NCCCN(C(=O)c2cccc(=O)n2[O-])CCCCN(C(=O)c2cccc(=O)n2[O-])CCCNC(=O)c2ccc(n([O-])c2=O)C(=O)N[C@@H]2COC[C@@H]2NC(=O)c2ccc1c(=O)n2[O-].[Eu+3] [40⋅Eu] |  | ε at λmax (starred values) [4]: 13,500* M^−1cm^−1 |
|  |  |  |  |  | CC(=O)CC(C)=O [Acac] | 7.85 |  |
|  |  |  |  |  | O=C(O)CN(CCN(CC(=O)O)CC(=O)O)CC(=O)O [EDTA] | 25.3 |  |
|  |  |  |  |  | C=C[C@H]1C[N@@]2CC[C@H]1C[C@H]2[C@H](O)c1ccnc2ccc(OC)cc12 [Quinine sulfate] |  | quantum yield standard Φ [5]: 0.508 |
| 1.98 | 1.27 | 382 |  |  | O=C1NCCCN(C(=O)c2cccc(=O)n2O)CCCCN(C(=O)c2cccc(=O)n2O)CCCNC(=O)c2ccc(n(O)c2=O)C(=O)NCCNC(=O)c2ccc1c(=O)n2O [Compound 16] |  | extinction coefficient [4]: 13,600 M^−1 cm^−1; lambda max [4]: 382 nm; ε at λmax [4]: 13,600 M^−1cm^−1 |
| 1.40 | 1.12 | 361 | 30.9 | 716 | O=C1NCCCN(C(=O)c2cccc(=O)n2[O-])CCCCN(C(=O)c2cccc(=O)n2[O-])CCCNC(=O)c2ccc(n([O-])c2=O)C(=O)NCCNC(=O)c2ccc1c(=O)n2[O-].[Eu+3] [16⋅Eu] |  | extinction coefficient [4]: 14,300 M^−1 cm^−1; lambda max [4]: 361 nm; ε at λmax [4]: 14,300 M^−1cm^−1 |
|  |  |  |  |  | O=C(O)CN(CC(=O)O)CC(=O)O [NTA] | 16.9 |  |
